{
  "source": "patent US6632829B2",
  "about": "“Sulfonamides and derivatives thereof that modulate the activity of endothelin” (Texas Biotechnology Corp., priority 1996, dated 2003)",
  "key": {"human ETA receptors": {"molecular_target": "T1, human ETA receptors (Homo sapiens, UniProt P25101)", "T1 construct": "endogenous in cells; host or cells: TE 671 cells (ATCC HTB 139), membrane preparation", "T1 sequence (P25101 21-427)": "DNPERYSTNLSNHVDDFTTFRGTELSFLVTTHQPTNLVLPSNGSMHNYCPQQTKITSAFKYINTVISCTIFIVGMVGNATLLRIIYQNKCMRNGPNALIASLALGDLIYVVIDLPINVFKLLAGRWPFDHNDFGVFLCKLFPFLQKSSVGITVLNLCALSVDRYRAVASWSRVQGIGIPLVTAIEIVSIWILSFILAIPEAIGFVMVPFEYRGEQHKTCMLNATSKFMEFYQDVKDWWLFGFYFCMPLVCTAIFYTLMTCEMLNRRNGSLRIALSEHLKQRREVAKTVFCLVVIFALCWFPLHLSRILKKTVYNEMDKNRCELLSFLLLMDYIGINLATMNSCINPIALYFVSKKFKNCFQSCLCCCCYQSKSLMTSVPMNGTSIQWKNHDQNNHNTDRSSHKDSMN", "assay": "Endothelin binding inhibition, Binding Test #1: competition with 125I-ET-1 for ETA receptors on TE 671 cell membranes", "conditions": "incubation at 24° C. (values marked †)"}, "[1]": {"assay": "Oral half-life and peak plasma levels", "assay_type": "in vivo", "excerpt": "As used herein, bioavailability refers to the rate and extent of absorption. Methods for determining bioavailability are well known to those of skill in the art. For example, bioavailability of any of the compounds described herein can be determined empirically by administration of the compound to an animal, followed by taking blood samples over time and measuring the blood concentration of the compound. In vivo half life (t1/2) is defined as the time it takes for the concentration of the compound in the blood to be reduced by one-half. Estimations of the area under the curve for intravenous administration can be used to estimate the area under the curve for oral administration, ylelding bioavailability data. See, e.g., Milo Gibal (1991) Biopharmaceutics and Pharmacology, 4th edition (Lea and Sediger).\nTable 2 lists oral half-life, bioavailability, and in vivo activity of selected exemplary compounds. The in vivo activity was measured in a pulmonary hypertension model and is a measure of the activity of the compounds at selected dosages."}, "hypertensive rat model": {"test_system": "hypertensive rat model", "assay": "Deoxycorticosterone acetate (DOCA)-salt hypertensive rat model", "assay_type": "in vivo", "method": "Selected compounds disclosed herein have been tested for activity in the deoxycorticosterone acetate (DOCA)-salt hypertensive rat model. To perform these tests, silastic MDX4-4210 elastomer implants containing 47 mg (DOCA) were prepared according to the method of Ornmsbee et al. ((1973) the J. Pharm. Sci. 62:255-257). Briefly, DOCA is incorporated into silicon rubber implants for sustained release. To prepare the implants the DOCA is incorporated into unpolymerized silicone rubber, catalyst is added and the mixture is cast in a hemicylindrical shape.\nSprague Dawley rats (7-8 weeks old) were unilaterally nephrectomized under ketamine anesthesia and a DOCA-implant was placed on the left lateral dorsal abdomen of the animal. The rats were allowed to recover for three weeks. During recovery they were permitted free access to normal rat chow and 0.9% NaCl drinking solution in place of drinking water. The rats develop hypertension within 3 weeks. […]\nOn the day of experimentation, catheters were inserted under brevital anesthesia into the right femoral artery for measurement of blood pressure, and into the right femoral vein for administration of a selected compound. The animals were placed in a restrainer and allowed to recover for a minimum of 60 min or until a steady mean arterial blood pressure was recorded. […] Blood pressure was recorded continuously for a further 10 hrs."}},
  "data": [
    {"smiles": "Cc1cc(C)c(NC(=O)c2sccc2S(=O)(=O)Nc2onc(C)c2Cl)c(C)c1O", "note": "[N-(4-chloro-3-methyl-5-isoxazolyl)-2-(3-hydroxy-2,4,6-trimethylphenylaminocarbonyl)thiophene-3-sulfonamide]", "values": [
      {"measurement": "IC50", "setting": "human ETA receptors", "result": 1.71, "unit": "nM"},
      {"measurement": "POt½ in Rat", "setting": "[1]; oral", "result": 7, "unit": "h"},
      {"measurement": "Peak Plasma Levels", "setting": "[1]; rat, in vivo", "result": 5.6, "unit": "µg/mL"},
      {"measurement": "decrease of blood pressure", "setting": "hypertensive rat model", "result": "effective in decreasing blood pressure"}
    ]}
  ]
}
